The text below walks through data of patent US5968949A, “Substituted hydroisoquinoline derivatives and their use as pharmaceuticals” (SmithKline Beecham S.p.A., priority 1995, dated 1999).

The subject of the experiment is delta receptor. Put plainly: Radioligand binding assay, [3H]-DADLE in mouse brain membranes. Particulars: stated in words after the delta affinity range. On the procedure:
The activity of the compounds of the present invention as selective delta ligands is determined in radioligand binding assays as described below.
Mouse brain membranes were prepared as described by Kosterlitz (Br. J. Pharmacol., 1981, 73, 939.). The binding of the preferential delta ligand [^3 H]-[D-Ala^2,D-Leu^5 ]-enkephalin (DADLE) was evaluated at its KD concentration (1.3 nM) in presence of 40 nM of the unlabelled mu ligand [D-Ala^2, MePhe^4, Gly-ol5]-enkephalin (DAMGO). The binding of the mu ligand [^3 H]-DAMGO (Eur. J. Pharmacol., 1989, 166, 213) and of the kappa ligand [^3 H]-U69593 (Excerpta Medica, 1990, 211) were carried out at 0.5 nM. The non-specific binding was determined in presence of naloxone (10 μM) for all tritiated ligands. Binding data were expressed as percentage of inhibition and fitted the following equation: f(x)=100.X/(IC50 +X) where X are cold drug concentration values. The IC50 obtained were used to calculate the inhibitory constants (Ki) accordingly to the Cheng and Prusoff relation (Biochem. Pharmacol., 1973, 22, 3099).

Consider `CN1CC[C@]2(c3cccc(O)c3)CC(c3ccccc3)=CC[C@H]2C1` (racemic) [Example 3, (±)-trans-4a-(3-Hydroxyphenyl)-2-methyl-6-phenyl-1,2,3,4,4a,5,8,8a-octahydroisoquinoline], for which the “potency rank among the exemplified compounds” value is listed as “most potent of the exemplified compounds”.
